Assay results from paper PMC5048659 (Arthritis Research & Therapy, 2016).
Entries after “also recorded” stand apart in the source; their conditions may differ. Each block holds one compound with its values, some of them ahead of it.

How the values were obtained:
PPARγ = target: T1, PPARγ (Homo sapiens, UniProt P37231); assay: Human PPARγ luciferase reporter assay; format: cell-based; settings: reporter cells, 24 hours
T1 sequence (P37231 238-505 limits assumed): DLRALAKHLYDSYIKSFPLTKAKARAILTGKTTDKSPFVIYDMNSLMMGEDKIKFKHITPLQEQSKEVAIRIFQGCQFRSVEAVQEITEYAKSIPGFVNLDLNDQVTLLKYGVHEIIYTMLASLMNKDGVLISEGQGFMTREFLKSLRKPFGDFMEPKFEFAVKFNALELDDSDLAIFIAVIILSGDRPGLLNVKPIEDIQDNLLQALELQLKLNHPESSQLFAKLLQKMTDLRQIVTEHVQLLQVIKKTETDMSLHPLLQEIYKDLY
Method: This assay was performed using nonhuman mammalian cells engineered to provide a PPARγ-responsive luciferase reporter gene and constitutive, high levels of PPARγ (Indigo Biosciences catalog number IB00101). Cells were incubated with compounds for 24 hours, and then luciferase activity was measured using a luminometer. Agonist activity was reported as fold activation over a vehicle control. A positive control agonist, rosiglitazone, was included in each batch run to verify cell integrity.

HepG2 cells = assay: Mitochondrial toxicity assay (JC-1 mitochondrial membrane potential); format: cell-based, human
Method: HepG2 cells were counted via hemocytometer and diluted into equal volumes of serum-free Opti-MEM (Life Technologies) and JC-1 Staining Solution (Sigma catalog number CS0390) at 300,000 cells/mL in the presence of 2.5 μg/mL JC-1. Cells were incubated at 37 °C and 5 % CO2 for 20 minutes, rinsed once with Hank's Balanced Salt Solution, and resuspended to the same concentration in serum-free Opti-MEM. Cells were then seeded into 96-well black-sided clear-bottom tissue culture plates at 30,000 cells/100 μL/well. Three replicates per experimental condition group were used. Compound was added with the final dimethyl sulfoxide (DMSO) concentration at 0.5 %. After 2 hours at 37 °C and 5 % CO2, medium was aspirated and plates were read on a Gemini EM spectrofluorometer (Molecular Devices). Fluorescence of JC-1 monomers was monitored by excitation at 490 nm and emission at 530 nm (green) and of aggregates by excitation at 525 nm and emission at 590 nm (red). The ratio of J-aggregates to monomers was calculated, with a lower ratio indicating increased cell toxicity. The percent change in mitochondrial membrane potential (Ψm) was calculated as follows: […]

GLUT9 (SLC2A9v2/GLUT9ΔN) = target: T2, GLUT9 (SLC2A9v2/GLUT9ΔN) (Homo sapiens, UniProt Q9NRM0); assay: GLUT9 urate transport in cRNA-injected oocytes; format: cell-based
T2 construct: expressed in transfected cells
T2 sequence (Q9NRM0 1-511 isoform Q9NRM0-2): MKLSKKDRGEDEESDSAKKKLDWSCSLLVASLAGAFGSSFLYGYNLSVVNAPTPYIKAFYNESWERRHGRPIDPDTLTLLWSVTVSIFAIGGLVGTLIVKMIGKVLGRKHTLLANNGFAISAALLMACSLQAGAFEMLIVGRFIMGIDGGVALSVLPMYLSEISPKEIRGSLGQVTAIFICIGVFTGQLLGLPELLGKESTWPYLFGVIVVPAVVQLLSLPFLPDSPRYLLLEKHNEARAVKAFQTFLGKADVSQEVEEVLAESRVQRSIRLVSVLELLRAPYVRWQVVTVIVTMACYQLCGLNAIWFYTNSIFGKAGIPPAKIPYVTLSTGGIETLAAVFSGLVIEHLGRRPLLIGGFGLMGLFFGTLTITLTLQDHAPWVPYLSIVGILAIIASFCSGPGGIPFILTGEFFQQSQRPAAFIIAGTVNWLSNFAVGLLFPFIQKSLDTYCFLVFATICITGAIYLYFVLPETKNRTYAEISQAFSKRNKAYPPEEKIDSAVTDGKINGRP
Method: For GLUT9, SLC2A9v2/GLUT9ΔN in pCMV6/neo was linearized with XmaI and NotI and cRNA transcribed using the mMessage mMachine T7 kit (Ambion). Oocytes were injected with either water or 25 ng cRNA and incubated for 3 to 5 days in ND96 buffer. For each point, 10 oocytes were incubated with 100 μM ^14C-uric acid in ND96 buffer with and without test compounds at room temperature for 60 minutes. The oocytes were then washed three to four times in ice-cold ND96 buffer and lysed prior to scintillation counting.

[1] = cited from earlier work
OAT4 = target: T3, OAT4 (Homo sapiens, UniProt Q9NSA0); assay: OAT4 urate transport assay in stably transfected HEK293 cells; format: cell-based; settings: 100 μM 14C-urate, 10 min, OAT4-551G cells; mean ± SEM, three experiments; read-out: Potency (IC50) against OAT4
T3 sequence (Q9NSA0 with tags, fused parts or gaps): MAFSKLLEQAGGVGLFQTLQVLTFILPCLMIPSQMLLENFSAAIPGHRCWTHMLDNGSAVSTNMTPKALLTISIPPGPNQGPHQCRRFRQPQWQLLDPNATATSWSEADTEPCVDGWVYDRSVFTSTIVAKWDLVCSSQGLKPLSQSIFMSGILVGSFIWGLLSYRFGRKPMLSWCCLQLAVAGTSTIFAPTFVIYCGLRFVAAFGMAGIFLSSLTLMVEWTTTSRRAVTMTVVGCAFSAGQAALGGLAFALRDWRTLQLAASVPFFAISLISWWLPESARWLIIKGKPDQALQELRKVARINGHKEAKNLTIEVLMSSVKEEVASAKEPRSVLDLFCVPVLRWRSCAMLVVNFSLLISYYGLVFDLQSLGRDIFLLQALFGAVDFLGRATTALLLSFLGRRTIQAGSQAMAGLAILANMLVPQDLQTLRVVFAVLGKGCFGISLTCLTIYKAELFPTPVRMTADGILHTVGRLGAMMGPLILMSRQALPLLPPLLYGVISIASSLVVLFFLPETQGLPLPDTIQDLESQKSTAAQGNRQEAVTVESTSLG
Method: Stably transfected HEK293-OAT4-551G cells were used for OAT4 transport activity assays, which were grown for several weeks in media (DMEM with 10 % fetal bovine serum and 1 mM sodium pyruvate) containing 500 μg/mL geneticin sulfate. An isolated clone with high OAT4 activity was selected for activity assays. One day prior to the assay, cells were plated at 200,000 cells/well into each well of white, clear bottom poly-D-lysine-coated assay plates (BD Biosciences).
The cells were assayed on the following day. […] The free urate was removed by aspiration and the cells rinsed three times in 150 μL wash buffer. The cells were then subjected to liquid scintillation counting to measure transported urate. […] Each point represents the mean and standard error of the mean (SEM) from triplicates.

Structure (SMILES): CCc1oc2ccccc2c1C(=O)c1cc(Br)c(O)c(Br)c1 [Benzbromarone]
- PPARγ activation (PPARγ; at 30 μM): strongly activated
- Lowest concentration reducing mitochondrial membrane potential (HepG2 cells; HepG2, 2 hours): 0.4 µM
- EC50 (HepG2 cells; Homo sapiens, HepG2, 2 hours, read-out: Half maximal effective concentration for reduction of mitochondrial membrane potential): 1.36 µM
- IC50 (GLUT9 (SLC2A9v2/GLUT9ΔN); 100 μM 14C-uric acid, 60 min, read-out: Potency against GLUT9): ~100 µM
- Effect on GLUT9 urate transport (GLUT9 (SLC2A9v2/GLUT9ΔN); compound at up to 100 μM): only weak activity; also recorded: inhibited
- Estimated plasma concentration [1]: 0.016 to 0.16 µM
- Urinary excretion [1]: 6%
- IC50 (OAT4): 3.19 ± 1.04 µM

- PPARγ activation (PPARγ; at 300 μM): slight PPARγ activation
- PPARγ activation (PPARγ; up to 100 μM): no activation
Structure (SMILES): CCCN(CCC)S(=O)(=O)c1ccc(C(=O)O)cc1 [Probenecid]
- Mitochondrial toxicity (HepG2 cells; HepG2, up to 300 μM): no mitochondrial toxicity
